Structures can show the parent of a compound that is named as a salt.

The values that follow come from patent publication US8148373B2, “Compounds” (AstraZeneca AB, priority 2008, dated 2012).

The target in assay [1] is T1, human muscarinic acetylcholine M3 receptor (M3-ACh) (Homo sapiens, UniProt P20309).
T1 construct: expressed in transfected cells; host or cells: CHO-K1 (Chinese Hamster Ovary) cell membranes
Nature of the assay: Muscarinic 3 Receptor Binding Assay ([3H]NMS competition, SPA). The following applies: [3H]NMS 0.1 nM, CHO-K1 cell membranes, 16 hours at room temperature; read-out: M3 pIC50 (converted). A digest of the protocol:
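Competition SPA binding of 0.1 nM [3H]NMS (quarter Kd) to membranes from CHO-K1 cells expressing human M3, in 20 mM HEPES pH 7.4, 5 mM MgCl2, 1% DMSO. Incubated 16 h at room temperature; non-specific binding with 1 µM atropine. pIC50 from 50% reduction of specific binding.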

For assay [2], the target named is T2, Adrenergic β2 (H292 cells) (Homo sapiens, UniProt P07550).
T2 construct: endogenous in cells; host or cells: H292 cells
T2 sequence (P07550 whole entry): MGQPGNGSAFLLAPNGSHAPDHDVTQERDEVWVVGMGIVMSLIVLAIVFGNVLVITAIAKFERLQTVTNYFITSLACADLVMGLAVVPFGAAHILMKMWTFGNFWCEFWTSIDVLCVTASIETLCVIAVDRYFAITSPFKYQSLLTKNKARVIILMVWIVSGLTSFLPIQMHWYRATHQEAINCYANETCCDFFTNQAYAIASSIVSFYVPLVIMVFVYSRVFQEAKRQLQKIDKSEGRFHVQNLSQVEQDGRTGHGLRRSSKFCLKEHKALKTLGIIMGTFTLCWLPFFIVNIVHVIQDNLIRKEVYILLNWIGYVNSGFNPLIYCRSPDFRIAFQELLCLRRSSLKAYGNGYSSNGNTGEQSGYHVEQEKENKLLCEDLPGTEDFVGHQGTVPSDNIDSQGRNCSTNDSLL
As to the kind of experiment: Assay for Adrenergic β2 Mediated cAMP Production (concentration response, AlphaScreen cAMP detection). It counts as cell-based. The conditions noted are these: for EC50: cAMP production, 60 minutes at room temperature, 300 μM rolipram, read-out: β2 pEC50 (converted); for β2 Intrinsic activity: fraction relative to the maximum activity determined for formoterol. In outline: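 H292 cells plated overnight, pre-treated with rolipram (300 μM final) 10 min, then compound 60 min at room temperature in HBSS/10 mM HEPES pH7.4/5 mM glucose, 1% DMSO. Lysate cAMP read by AlphaScreen against a cAMP standard curve; 4-parameter fit gives pEC50 and intrinsic activity as fraction of formoterol maximum.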
For orientation: In Alpha technology, singlet oxygen from a donor bead excites a nearby acceptor bead.

T1 sequence (P20309 whole entry): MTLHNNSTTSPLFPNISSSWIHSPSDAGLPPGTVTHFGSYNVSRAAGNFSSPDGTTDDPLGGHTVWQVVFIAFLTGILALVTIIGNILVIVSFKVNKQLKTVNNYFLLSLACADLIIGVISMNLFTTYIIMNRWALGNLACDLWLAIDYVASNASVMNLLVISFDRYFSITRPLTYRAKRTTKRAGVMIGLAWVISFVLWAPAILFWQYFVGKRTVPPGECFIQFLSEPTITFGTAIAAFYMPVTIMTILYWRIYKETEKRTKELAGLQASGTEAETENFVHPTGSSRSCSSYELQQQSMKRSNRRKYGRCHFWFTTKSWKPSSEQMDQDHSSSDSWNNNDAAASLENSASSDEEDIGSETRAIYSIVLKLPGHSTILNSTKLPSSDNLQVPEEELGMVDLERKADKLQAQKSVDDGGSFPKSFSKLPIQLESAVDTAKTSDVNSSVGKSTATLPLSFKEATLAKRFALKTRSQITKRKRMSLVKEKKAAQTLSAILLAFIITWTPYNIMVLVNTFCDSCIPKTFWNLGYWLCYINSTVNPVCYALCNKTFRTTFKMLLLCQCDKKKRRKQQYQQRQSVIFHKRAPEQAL

In the case of `Cc1nc(C(=O)N2CCOC3(CCN(Cc4cccc(CCNCC(O)c5ccc(O)c6c5OCC(=O)N6)c4)CC3)C2)cs1` (single isomer, unassigned; isomer 2) [Example 13, 5-Hydroxy-8-(1-hydroxy-2-(3-((4-(2-methylthiazole-4-carbonyl)-1-oxa-4,9-diazaspiro[5.5]undecan-9-yl)methyl)phenethylamino)ethyl)-2H-benzo[b][1,4]oxazin-3(4H)-one ditrifluoroacetate, Isomer 2], in assay [1], the IC50 was 0.0794 nM. Further, in assay [2], the EC50 was 39.8 nM and the “β2 Intrinsic activity” value came out at 0.8.

In the case of `Cc1nc(C(=O)N2CCOC3(CCN(Cc4cccc(CCNCC(O)c5ccc(O)c6c5OCC(=O)N6)c4)CC3)C2)cs1` (single isomer, unassigned; isomer 1) [Example 11, 5-Hydroxy-8-(1-hydroxy-2-(3-((4-(2-methylthiazole-4-carbonyl)-1-oxa-4,9-diazaspiro[5.5]undecan-9-yl)methyl)phenethylamino)ethyl)-2H-benzo[b][1,4]oxazin-3(4H)-one ditrifluoroacetate, Isomer 1], the IC50 in assay [1] was 0.1 nM. Further, in assay [2], the EC50 was 1.58 nM and the “β2 Intrinsic activity” value worked out at 0.8.

In the case of `Cc1ccc(C(=O)N2CCOC3(CCN(Cc4cccc(CCNC[C@H](O)c5ccc(O)c6[nH]c(=O)ccc56)c4)CC3)C2)s1` [Example 9, (R)-8-Hydroxy-5-(1-hydroxy-2-(3-((4-(5-methylthiophene-2-carbonyl)-1-oxa-4,9-diazaspiro[5.5]undecan-9-yl)methyl)phenethylamino)ethyl)quinolin-2(1H)-one ditrifluoracetate], the IC50 in assay [1] was 2 nM. Also, in assay [2], the EC50 was 5.01 nM and the “β2 Intrinsic activity” value is 0.9.

In the case of `CC(C)c1csc(C(=O)N2CCOC3(CCN(Cc4cccc(CCNC[C@H](O)c5ccc(O)c6[nH]c(=O)ccc56)c4)CC3)C2)n1` [Example 76, (R)-8-Hydroxy-5-(1-hydroxy-2-(3-((4-(4-isopropylthiazole-2-carbonyl)-1-oxa-4,9-diazaspiro[5.5]undecan-9-yl)methyl)phenethylamino)ethyl)quinolin-2(1H)-one ditrifluoroacetate], in assay [1], the IC50 is 2 nM. For the same compound, in assay [2], the EC50 is 31.6 nM and the “β2 Intrinsic activity” value was 0.9.

On to `CC(C)c1nc(C(=O)N2CCOC3(CCN(Cc4cccc(CCNC[C@H](O)c5ccc(O)c6[nH]c(=O)sc56)c4F)CC3)C2)cs1` [Example 48, (R)-7-(2-(2-Fluoro-3-((4-(2-isopropylthiazole-4-carbonyl)-1-oxa-4,9-diazaspiro[5.5]undecan-9-yl)methyl)phenethylamino)-1-hydroxyethyl)-4-hydroxybenzo[d]thiazol-2(3H)-one ditrifluoroacetate], for which the IC50 in assay [1] was 0.794 nM. In addition, in assay [2], the EC50 was 5.01 nM and the “β2 Intrinsic activity” value turned out to be 0.9.

Regarding `Cc1nc(C(=O)N2CCOC3(CCN(CCOc4ccc(CNC[C@H](O)c5ccc(O)c6[nH]c(=O)sc56)cc4)CC3)C2)cs1` [Example 1, (R)-4-Hydroxy-7-(1-hydroxy-2-(4-(2-(4-(2-methylthiazole-4-carbonyl)-1-oxa-4,9-diazaspiro[5.5]undecan-9-yl)ethoxy)benzylamino)ethyl)benzo[d]thiazol-2(3H)-one ditrifluoroacetate], the IC50 in assay [1] was 3.16 nM. Also, in assay [2], the EC50 was 63.1 nM and the “β2 Intrinsic activity” value stood at 0.8.

For `COC(=O)c1ccc(C(=O)N2CCOC3(CCN(Cc4cccc(CCNC[C@H](O)c5ccc(O)c6[nH]c(=O)sc56)c4)CC3)C2)s1` [Example 30, (R)-methyl 5-(9-(3-(2-(2-hydroxy-2-(4-hydroxy-2-oxo-2,3-dihydrobenzo[d]thiazol-7-yl)ethylamino)ethyl)benzyl)-1-oxa-4,9-diazaspiro[5.5]undecane-4-carbonyl)thiophene-2-carboxylate ditrifluoroacetate], in assay [1], the IC50 is 15.8 nM. Also, in assay [2], the EC50 was 2.51 nM and the “β2 Intrinsic activity” value came out at 0.9.

Take `Cc1nc(C(=O)N2CCOC3(CCN(Cc4cccc(CNC[C@H](O)c5ccc(O)c6[nH]c(=O)ccc56)c4)CC3)C2)cs1` [Example 96, (R)-8-Hydroxy-5-(1-hydroxy-2-(3-((4-(2-methylthiazole-4-carbonyl)-1-oxa-4,9-diazaspiro[5.5]undecan-9-yl)methyl)benzylamino)ethyl)quinolin-2(1H)-one ditrifluoroacetate]: the IC50 in assay [1] is 0.251 nM. In addition, in assay [2], the EC50 was over 3200 nM and the “β2 Intrinsic activity” value was “NV* (inactive up to a max concentration of 3.2 μM of test compound)”.

As to `CCc1cc(C(=O)N2CCOC3(CCN(Cc4cc(CCNC[C@H](O)c5ccc(O)c6[nH]c(=O)sc56)ccc4F)CC3)C2)cs1` [Example 100, (R)-7-(2-(3-((4-(5-Ethylthiophene-3-carbonyl)-1-oxa-4,9-diazaspiro[5.5]undecan-9-yl)methyl)-4-fluorophenethylamino)-1-hydroxyethyl)-4-hydroxybenzo[d]thiazol-2(3H)-one ditrifluoroacetate], the IC50 in assay [1] was 1.58 nM. Moreover, in assay [2], the EC50 is 5.01 nM and the “β2 Intrinsic activity” value was found to be 0.9.

For the compound `CC(C)c1nc(C(=O)N2CCOC3(CCN(CCOc4ccc(CCNC[C@H](O)c5ccc(O)c6[nH]c(=O)ccc56)c(F)c4F)CC3)C2)cs1` [Example 77, (R)-5-(2-(2,3-Difluoro-4-(2-(4-(2-isopropylthiazole-4-carbonyl)-1-oxa-4,9-diazaspiro[5.5]undecan-9-yl)ethoxy)phenethylamino)-1-hydroxyethyl)-8-hydroxyquinolin-2(1H)-one ditrifluoroacetate], the IC50 in assay [1] is 2.51 nM. Moreover, in assay [2], the EC50 is 79.4 nM and the “β2 Intrinsic activity” value is listed as 1.

With `CC(C)c1nc(C(=O)N2CCOC3(CCN(Cc4cc(CCNC[C@H](O)c5ccc(O)c6[nH]c(=O)sc56)cs4)CC3)C2)cs1` [Example 36, (R)-4-Hydroxy-7-(1-hydroxy-2-(2-(5-((4-(2-isopropylthiazole-4-carbonyl)-1-oxa-4,9-diazaspiro[5.5]undecan-9-yl)methyl)thiophen-3-yl)ethylamino)ethyl)benzo[d]thiazol-2(3H)-one ditrifluoroacetate], in assay [1], the IC50 was 0.501 nM. In addition, in assay [2], the EC50 is 6.31 nM and the “β2 Intrinsic activity” value came out at 1.

With `CC(C)c1nc(C(=O)N2CCOC3(CCN(Cc4ccc(F)c(CCNC[C@H](O)c5ccc(O)c6[nH]c(=O)ccc56)c4F)CC3)C2)cs1` [Example 46, (R)-5-(2-(2,6-Difluoro-3-((4-(2-isopropylthiazole-4-carbonyl)-1-oxa-4,9-diazaspiro[5.5]undecan-9-yl)methyl)phenethylamino)-1-hydroxyethyl)-8-hydroxyquinolin-2(1H)-one ditrifluoroacetate], the IC50 in assay [1] is 6.31 nM. Besides, in assay [2], the EC50 is 79.4 nM and the “β2 Intrinsic activity” value worked out at 1.

Regarding `Cc1nc(C(=O)N2CCOC3(CCN(Cc4ccc(CCNC[C@H](O)c5ccc(O)c6[nH]c(=O)ccc56)s4)CC3)C2)cs1` [Example 14, (R)-8-Hydroxy-5-(1-hydroxy-2-(2-(5-((4-(2-methylthiazole-4-carbonyl)-1-oxa-4,9-diazaspiro[5.5]undecan-9-yl)methyl)thiophen-2-yl)ethylamino)ethyl)quinolin-2(1H)-one ditrifluoroacetate], the IC50 in assay [1] was 6.31 nM. Also, in assay [2], the EC50 is 5.01 nM and the “β2 Intrinsic activity” value was found to be 0.9.

On to `Cc1ccc(C(=O)N2CCOC3(CCN(Cc4cccc(CCNC[C@H](O)c5ccc(O)c6[nH]c(=O)sc56)c4)CC3)C2)s1` [Example 15, (R)-4-Hydroxy-7-(1-hydroxy-2-(3-((4-(5-methylthiophene-2-carbonyl)-1-oxa-4,9-diazaspiro[5.5]undecan-9-yl)methyl)phenethylamino)ethyl)benzo[d]thiazol-2(3H)-one trifluoroacetate], for which the IC50 in assay [1] was 1.26 nM. In assay [2], the EC50 was 2.51 nM and the “β2 Intrinsic activity” value worked out at 0.9.

For the compound `CC(C)c1nc(C(=O)N2CCOC3(CCN(Cc4cccc(SCCNC[C@H](O)c5ccc(O)c6[nH]c(=O)sc56)c4)CC3)C2)cs1` [Example 65, (R)-4-Hydroxy-7-(1-hydroxy-2-(2-(3-((4-(2-isopropylthiazole-4-carbonyl)-1-oxa-4,9-diazaspiro[5.5]undecan-9-yl)methyl)phenylthio)ethylamino)ethyl)benzo[d]thiazol-2(3H)-one ditrifluoroacetate], the IC50 in assay [1] is 0.631 nM. Besides, in assay [2], the EC50 was 100 nM and the “β2 Intrinsic activity” value was 0.9.

Turning to `CCc1cc(C(=O)N2CCOC3(CCN(Cc4cc(F)cc(CCNC[C@H](O)c5ccc(O)c6[nH]c(=O)sc56)c4)CC3)C2)cs1` [Example 93, (R)-7-(2-(3-((4-(5-Ethylthiophene-3-carbonyl)-1-oxa-4,9-diazaspiro[5.5]undecan-9-yl)methyl)-5-fluorophenethylamino)-1-hydroxyethyl)-4-hydroxybenzo[d]thiazol-2(3H)-one ditrifluoroacetate], the IC50 in assay [1] was 2.51 nM. Besides, in assay [2], the EC50 was 2.51 nM and the “β2 Intrinsic activity” value is listed as 0.8.

`Cc1cc(C(=O)N2CCOC3(CCN(CCOc4ccc(CNC[C@H](O)c5ccc(O)c6[nH]c(=O)sc56)cc4)CC3)C2)cs1` [Example 104, (R)-4-Hydroxy-7-(1-hydroxy-2-(4-(2-(4-(5-methylthiophene-3-carbonyl)-1-oxa-4,9-diazaspiro[5.5]undecan-9-yl)ethoxy)benzylamino)ethyl)benzo[d]thiazol-2(3H)-one formate]: the IC50 in assay [1] is 3.16 nM. Also, in assay [2], the EC50 was 79.4 nM and the “β2 Intrinsic activity” value turned out to be 0.9.
